Experimental data taken from patent US11844806B2 (Asamedic AS, priority 2017, dated 2023).

Columns and labels:
[1] = Dissolution of ASA on mixing with phosphate salt solution or water, shaken in the two component device; type: physicochemical
Description: (§1) The cap comprising the powder compartment and the cutting element was assembled with the container comprising the solution.
(§2) The cap was then turned down until the seal keeping the powder and the solution separately was broken by the cutting element. […] The device was then shaken until all ASA was dissolved.
(§3) The solution was then shaken until all ASA was dissolved. A light-yellow coloring of the solution was observed.
(§4) After releasing the ASA and sodium carbonate into the water, the solution was shaken until all ASA was dissolved.

[2] = pH of the solution after dissolution of ASA; type: physicochemical; settings: for Measured pH of the solutions after dissolution of ASA: 300 mg ASA
Description: as §1, §2
Further aqueous solutions of salts of phosphoric acid were prepared. These phosphoric acid salt solutions were prepared in order to test the dissolution time of ASA at different final pH values i.e. the pH in the final ASA solution that are to be taken by the patient. Thus, the amount (mg) of the salt of phosphoric acid to be used was calculated based on the final pH to be obtained (theoretically pH).
as §3, §4

CC(=O)Oc1ccccc1C(=O)O [ASA, acetylsalicylic acid]
Time before ASA was dissolved ([1]; 300 mg ASA and 258-263 mg Na2CO3 released together into 15 ml pure water, test device, Example 7 (carbonate comparison)): approx. 120 sec.
Time in which ASA is dissolved in the Na2HPO4 solutions ([1]; 300 mg ASA, 15 ml, pH in the final solution set between approximately 7 to 8 (summary of table 2)): ≤ 25 s
Time in which ASA is dissolved in the Na3PO4.12H2O solution ([1]; 300 mg ASA, 15 ml, pH in the final solution set to approximately 7 (summary of table 3)): ≤ 25 s
Time until all ASA was dissolved ([1]; 300 mg crushed ASA and 1000 mg crushed Na2HPO4 released together into 15 ml pure water, test device, Example 3): ≤ 30 s
Time until all ASA was dissolved ([1]; 304 mg ASA and 610 mg Na3PO4 released at the same time into 15 ml pure water, Example 5): ≤ 30 s
300 mg ASA in 15 ml solution dissolved within 25 seconds ([1]; 422 mg (1.11 · 10^−3 mol) Na3PO4•12H2O in 15 ml, theoretical pH 7.2): yes
300 mg ASA in 15 ml solution dissolved within 25 seconds ([1]; 474 mg (3.34 · 10^−3 mol) Na2HPO4 in 15 ml, theoretical pH 7.2): Yes
300 mg ASA in 15 ml solution dissolved within 25 seconds ([1]; 950 mg (6.67 · 10^−3 mol) Na2HPO4 in 15 ml, theoretical pH 7.7): Yes
300 mg ASA in 15 ml solution dissolved within 25 seconds ([1]; 1730 mg (1.21 · 10^−2 mol) Na2HPO4 in 15 ml, theoretical pH 8.0): Yes
pH of the solutions after dissolution of ASA and the carbonate salt ([2]; 300 mg ASA and 258-263 mg Na2CO3 in 15 ml pure water, Example 7): 9.41-9.43
Measured pH of the solutions after dissolution of ASA ([2]; 422 mg Na3PO4•12H2O in 15 ml, theoretical pH 7.2): 7.6
Measured pH of the solutions after dissolution of ASA ([2]; 474 mg Na2HPO4 in 15 ml, theoretical pH 7.2): 7.0
Measured pH of the solutions after dissolution of ASA ([2]; 1730 mg Na2HPO4 in 15 ml, theoretical pH 8.0): 7.7
pH of the solution after dissolution of ASA and the hydrogen phosphate salt ([2]; 300 mg crushed ASA and 1000 mg crushed Na2HPO4 in 15 ml pure water, Example 3): 7
pH of the solution after dissolution of ASA and the phosphate salt ([2]; 304 mg ASA and 610 mg Na3PO4 in 15 ml pure water, Example 5): 10.72
